Reference: patent EP0431327B1, “Synthetic vaccine for the specific induction of cytotoxic T-lymphocytes” (HOECHST AKTIENGESELLSCHAFT, priority 1989, dated 1991)

System: Influenza-Virus A/PR/8
Experiment: Protection of immunised mice against intranasal influenza virus infection (survival, body weight)
Assay type: in vivo, BALB/c-Inzuchtmäuse
Procedure: Unter SPF-Bedingungen gezüchtete, 3 Monate alte BALB/c-Inzuchtmäuse wurden intravenös mit 100 µg Pam₃cys-Ser-Ser-[NP 147-158] immunisiert. (100 µg Pam₃Cys-Ser-Ser-[NP 147-158], aufgenommen in 300 µl PBS, 1 min beschallt). Nach 28 Tagen wurden die Mäuse mit 0,2 bzw. 0,4 haemagglutinierenden Einheiten Influenza-Virus A/PR/8 intranasal infiziert. Analog wurden zur Kontrolle Mäuse infiziert, denen 300 µl PBS intravenös appliziert wurde. Der Verlauf der Infektion wurde anhand von täglichen Gewichtskontrollen und der Überlebensrate kontrolliert. 11 von 12 Kontrolltieren, die mit 0,4 haemagglutinierenden Einheiten infiziert wurden, starben nach 11 Tagen an der Virusinfektion, während von den immunisierten Tieren nur 4 von 12 starben.
Eine weitere Kontrollgruppe und eine mit Pam₃Cys-Ser-Ser-[NP 147-158] immunisierte Gruppe wurden mit 0,2 haemagglutinierenden Einheiten Influenza-Virus infiziert. Nach 18 Tagen lebten noch 40 % der Kontrolltiere (4 von 10 Tieren), während 75 % der immunisierten Tiere lebten. Am Tag 18 betrug die Gewichtsdifferenz zwischen immunisierten Tieren und Kontrolltieren 4 g.

## N-Palmitoyl-S-[2,3-(bispalmitoyloxy)-propyl]cysteinyl-seryl-seryl-NP 147-158 [Pam₃Cys-Ser-Ser-[NP 147-158]]
0,2 haemagglutinating units, after day 18, surviving controls kept losing weight
  Verlauf der Infektion (Gewicht): langsam von der Infektion erholten
0,2 haemagglutinating units, day 18
  Gewichtsdifferenz zwischen immunisierten Tieren und Kontrolltieren: 4 g
100 µg i.v. in 300 µl PBS, after 28 days infected intranasally with 0,4 haemagglutinating units, deaths after 11 days, PBS controls 11 von 12
  immunisierte Tiere, die an der Virusinfektion starben: 4 von 12
Immunised group infected with 0,2 haemagglutinating units, after 18 days, controls 40 %
  lebende immunisierte Tiere: 75%
